The values below come from US7001983B1, “Antipathogenic synthetic peptides and compositions comprising them” (priority 1997, dated 2006).

For one series, the system named is Escherichia coli D21. It counts as cell-based. Particulars: 100% inhibition of growth after 18–20 h.
The subject of series [1] is human red blood cells (hRBC). As to the kind of experiment: Hemolysis of human red blood cells. It counts as cell-based. The settings on record: hRBC. Summed up: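 Washed fresh erythrocytes at 5% v/v final in PBS pH 7.3 exposed to peptide 30 min at 37° C with agitation. Hemoglobin release read as supernatant absorbance at 540 nm after centrifugation, scaled between PBS (0%) and 1% Triton (100%).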

In series [2] the test system is Acinetobacter calcoaceticus Ac11. Format: cell-based. Particulars: 100% inhibition of growth after 18–20 h.
Series [3] deals with Bacillus subtilis ATCC 6051. It counts as cell-based. The settings on record: 100% inhibition of growth after 18–20 h.
For series [4], the system named is Micrococcus Iuteus ATCC 9341. The series can be described thus: Antibacterial activity (MIC), growth inhibition in LB medium. It counts as cell-based, Micrococcus luteus. Particulars: 100% inhibition of growth after 18–20 h. Summed up:
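Bacteria at 10^6 CFU/ml in LB mixed 1:1 with 2-fold serial peptide dilutions in water or 66% pooled normal human serum in PBS. After 18–20 h at 37° C, growth inhibition read by absorbance at 492 nm to give MIC.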

Series [5] has as its system Cryptococcus neoformans (IP960-67). The series can be described thus: Antifungal activity (MIC). Format: cell-based. Particulars: 100% inhibition of growth after 48 h at 30° C. As for the experimental part:
(§1) The antifungal activity of the pardaxin-derived peptides 1 and 16 (see Example 1 above) was examined in sterile 96-well plates (Nunc F96 microtiter plates) in a final volume of 100 μL as follows: Fifty microliters of a suspension containing fungi at concentration of 1×10^6 Colony-Forming Units (CFU)/ml in culture medium (Sabouraud's glucose broth medium) was added to 50 μL of water containing the peptide in serial 2-fold dilutions in water. Inhibition of growth was determined by measuring the absorbance at 492 nm with a Microplate autoreader E1309 (Bio-tek Instruments), after an incubation time of 48 h at 30° C. […] The fungi used were: Candida albicans (IP886-65) and Cryptococcus neoformans (IP960-67).

In series [6] the test system is Candida albicans (IP886-65). The series can be described thus: Antifungal activity (MIC). The settings on record: 100% inhibition of growth after 48 h at 30° C. Format: cell-based. The protocol: as §1
For another series, the system named is Bacillus megaterium Bm11. Format: cell-based. Particulars: 100% inhibition of growth after 18–20 h.

For the compound `CC[C@H](C)[C@H](NC(=O)[C@H](CCCCN)NC(=O)[C@H]1CCCN1C(=O)[C@@H](NC(=O)[C@H](CC(C)C)NC(=O)[C@H](C)NC(=O)[C@H](Cc1ccccc1)NC(=O)[C@H](Cc1ccccc1)NC(=O)CN)[C@@H](C)CC)C(=O)N[C@H](C(=O)N[C@@H](CO)C(=O)N[C@@H](CO)C(=O)N1CCC[C@H]1C(=O)N[C@@H](CC(C)C)C(=O)N[C@@H](Cc1ccccc1)C(=O)N[C@@H](CCCCN)C(=O)N[C@H](C(=O)N[C@H](CC(C)C)C(=O)N[C@H](CC(C)C)C(=O)N[C@@H](CO)C(=O)N[C@@H](C)C(=O)N[C@H](C(=O)NCC(=O)N[C@@H](CO)C(=O)N[C@@H](C)C(=O)N[C@@H](CC(C)C)C(=O)N[C@@H](CO)C(=O)N[C@@H](CO)C(=O)N[C@@H](CO)C(=O)NCC(=O)NCC(=O)N[C@@H](CCC(N)=O)C(=O)N[C@@H](CCC(=O)NCCN)C(=O)NCCN)C(C)C)[C@@H](C)O)[C@@H](C)CC` [Peptide 1, [D]P^7L^18L^19-TApar], the “Minimal Inhibitory Concentration E. coli (D21)” value with Escherichia coli D21 was 6 µM. Besides, the “% hemolysis at 50 μM peptide” value in series [1] (50 μM peptide, 30 min at 37° C.) is reported as 5%. In addition, the “hemolytic activity up to the maximum concentration tested” value in series [1] (up to 50 μM) is “practically devoid of hemolytic activity”. Moreover, the “Minimal Inhibitory Concentration A. calcoaceticus (Ac11)” value in series [2] is 6 µM. In addition, the “Minimal Inhibitory Concentration B. subtilis (ATCC 6051)” value in series [3] came out at 3 µM. Further, the “Minimal Inhibitory Concentration M. luteus (ATCC 9341)” value in series [4] came out at 12.5 µM. The “Minimal Inhibitory Concentration Cryptococcus neoformans (IP960-67)” value in series [5] is 50 µM. In addition, in series [6], the “Minimal Inhibitory Concentration Candida albicans (IP886-65)” value came to 35 µM. In the series on Bacillus megaterium Bm11, the “Minimal Inhibitory Concentration B. megaterium (Bm11)” value was determined as 0.9 µM.
